Experimental data from US20110263454A1, “Methods of Identifying Functional Characteristics of Promoters, Transcription Modifying Proteins and Transcription Modulating Agents” (Salk Institute for Biological Studies, priority 2008, published 2011).

How the values were obtained:
FGF1D promoter = assay: FGF family promoter luciferase reporter screen by NHRs, FGF1D; type: cell-based, human; conditions: FIG. 43, in words
Text: (§1) Screening for FGF regulation by NHRs. The methods described herein provide a straightforward, high throughput, sensitive and quantitative strategy to identify therapeutic agonists and antagonists that can predictably modulate FGF and FGFR expression for therapeutic benefit. Promoter constructs were designed and screened for all 22 members of the FGF-family for novel regulation by the NHRs. Of particular interest is the strong and specific transcriptional regulation of FGF1A, one of the alternative splice variants of FGF1, by PPARγ (FIG. 43). The FGF 1 gene is regulated by at least three (A, B and D) different promoters. Alternative splicing of these promoters to the three exons of the FGF1 gene results in identical but differentially expressed FGF1 polypeptides (FIG. 44). FGF1A is highly expressed in heart, kidney and adipose, FGF1B is highly expressed in brain and FGF1D is highly expressed in liver.

FGF1A promoter = assay: FGF family promoter luciferase reporter screen by NHRs, FGF1A; type: cell-based, human; conditions: FIG. 43, in words
Text: as §1
FGF1A promoter analysis. To gain more insight into the regulation of the FGF1A promoter by PPARγ, the putative PPRE was localized. […] The evolutionary conservation of FGF1A was determined and found to be highly conserved in a wide range of mammals (bovine, canine, horse, chimpanzee, human, orangutan, rat, mouse, and opossum). […] In addition to a strong conservation of the PPRE in this promoter, several other highly conserved elements were detected (e.g. SP1, HMTB, EVI1 and E-box).

SREBP1c promoter = assay: NHR-promoter luciferase screen, SREBP1c promoter; type: cell-based, mouse; conditions: for Luc. act., normalized to lacZ / Normalized Luc. act., normalized to control: SREBP1c promoter, HR component without or with ligand; for mSREBP1-c promoter reporter activity: transcription factor +/- ligand, control = 1.00
Method in brief: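 Values are luciferase activity normalised to LacZ (transfection control) and to a control lacking NHR or ligand. Read-out at 48 h in CV-1 cells carrying 100 ng promoter-reporter, 50 ng receptor (alone or with RXR) and 50 ng LacZ.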

hIRF7 promoter = assay: NHR-promoter luciferase screen, hIRF7 promoter; type: cell-based, human; conditions: for Normalized Luc. act., normalized to control / Luc. act., normalized to lacZ: IRF7 promoter reporter; for Normalized Luc. act., normalized to control: HR without or with its ligand, relative to control; for Luc. act., normalized to lacZ: hormone receptor (HR) without or with its ligand; for hIRF7 promoter reporter activity: transcription factor +/- ligand, control = 1.00
Method in brief: (§2)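 CV-1 cells were co-transfected with 50 ng NHR (homodimer or NHR/RXR heterodimer), 100 ng promoter-luciferase construct and 50 ng LacZ. Luciferase was normalized to LacZ and to a no-NHR/no-ligand control.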

mADRP promoter = assay: NHR-promoter luciferase screen, mADRP promoter; type: cell-based, mouse; conditions: for Luc. act., normalized to lacZ / Normalized Luc. act., normalized to control: ADRP promoter, HR/ligand component; for mADRP promoter reporter activity: transcription factor +/- ligand, control = 1.00
Method in brief: as §2

**Q.** What does the source list for “PPARg: Peroxisome proliferator activated receptor γ (NR1C3), cDNA driver”?
**A.** activation of FGF1D promoter, luciferase reporter assay (FGF1D promoter): moderate activation; activation of FGF1A promoter, luciferase reporter assay (FGF1A promoter): strong activation; Luc. act., normalized to lacZ (SREBP1c promoter): 795.8; Normalized Luc. act., normalized to control (SREBP1c promoter): 2.5; mSREBP1-c promoter reporter activity (SREBP1c promoter): 2.47; Normalized Luc. act., normalized to control (hIRF7 promoter): 1.7; Luc. act., normalized to lacZ (hIRF7 promoter): 44.8; hIRF7 promoter reporter activity (hIRF7 promoter): 1.70; Luc. act., normalized to lacZ (mADRP promoter): 891.4; Normalized Luc. act., normalized to control (mADRP promoter): 1.8; mADRP promoter reporter activity (mADRP promoter): 1.79

**Q.** How did the “activation of FGF1D promoter, luciferase reporter assay” value (FGF1D promoter) turn out when “LXRa: Liver X Receptor α (NR1H3), cDNA driver” was run?
**A.** moderate activation

**Q.** What about the “regulation of the SREBP1c promoter” value (SREBP1c promoter; FIG. 2b, in words) of the same molecule?
**A.** specific and strong activation

**Q.** And the “Luc. act., normalized to lacZ” value (SREBP1c promoter)?
**A.** 5951.9

**Q.** What about the “Normalized Luc. act., normalized to control” value (SREBP1c promoter) of the same molecule?
**A.** 18.5

**Q.** What about the “mSREBP1-c promoter reporter activity” value (SREBP1c promoter) of the same molecule?
**A.** 18.48

**Q.** What about the “Normalized Luc. act., normalized to control” value (hIRF7 promoter) of the same molecule?
**A.** 1.3

**Q.** And the “Luc. act., normalized to lacZ” value (hIRF7 promoter)?
**A.** 33.2

**Q.** And the “hIRF7 promoter reporter activity” value (hIRF7 promoter)?
**A.** 1.26

**Q.** What about the “Luc. act., normalized to lacZ” value (mADRP promoter) of the same molecule?
**A.** 1095.7

**Q.** What about the “Normalized Luc. act., normalized to control” value (mADRP promoter) of the same molecule?
**A.** 2.2

**Q.** What about the “mADRP promoter reporter activity” value (mADRP promoter) of the same molecule?
**A.** 2.20

B1: SHP: Small Heterodimer Partner (NR0B2), cDNA driver (protein, UniProt Q15466 1-257, looked up)
Nuclear receptor subfamily 0 …: MSTSQPGACPCQGAASRPAILYALLSSSLKAVPRPRSRCLCRQHRPVQLCAPHRTCREALDVLAKTVAFLRNLPSFWQLPPQDQRRLLQGCWGPLFLLGLAQDAVTFEVAEAPVPSILKKILLEEPSSSGGSGQLPDRPQPSLAAVQWLQCCLESFWSLELSPKEYACLKGTILFNPDVPGLQAASHIGHLQQEAHWVLCEVLEPWCPAAQGRLTRVLLTASTLKSIPTSLLGDLFFRPIIGDVDIAGLLGDMLLLR
**Q.** With B1 as the molecule, how does the “Luc. act., normalized to lacZ” value (SREBP1c promoter) read?
**A.** 350.6

**Q.** What about the “Normalized Luc. act., normalized to control” value (SREBP1c promoter) of the same molecule?
**A.** 1.1

**Q.** And the “mSREBP1-c promoter reporter activity” value (SREBP1c promoter)?
**A.** 1.09

**Q.** And the “Normalized Luc. act., normalized to control” value (hIRF7 promoter)?
**A.** 1.1

**Q.** And the “Luc. act., normalized to lacZ” value (hIRF7 promoter)?
**A.** 29.1

**Q.** What about the “hIRF7 promoter reporter activity” value (hIRF7 promoter) of the same molecule?
**A.** 1.10

**Q.** And the “Luc. act., normalized to lacZ” value (mADRP promoter)?
**A.** 421.4

**Q.** What about the “Normalized Luc. act., normalized to control” value (mADRP promoter) of the same molecule?
**A.** 0.8

**Q.** What about the “mADRP promoter reporter activity” value (mADRP promoter) of the same molecule?
**A.** 0.85

B2: DAX-1: DAX1 (NR0B1), cDNA driver (protein, UniProt P51843 1-470, looked up)
Nuclear receptor subfamily 0 …: MAGENHQWQGSILYNMLMSAKQTRAAPEAPETRLVDQCWGCSCGDEPGVGREGLLGGRNVALLYRCCFCGKDHPRQGSILYSMLTSAKQTYAAPKAPEATLGPCWGCSCGSDPGVGRAGLPGGRPVALLYRCCFCGEDHPRQGSILYSLLTSSKQTHVAPAAPEARPGGAWWDRSYFAQRPGGKEALPGGRATALLYRCCFCGEDHPQQGSTLYCVPTSTNQAQAAPEERPRAPWWDTSSGALRPVALKSPQVVCEAASAGLLKTLRFVKYLPCFQVLPLDQQLVLVRNCWASLLMLELAQDRLQFETVEVSEPSMLQKILTTRRRETGGNEPLPVPTLQHHLAPPAEARKVPSASQVQAIKCFLSKCWSLNISTKEYAYLKGTVLFNPDVPGLQCVKYIQGLQWGTQQILSEHTRMTHQGPHDRFIELNSTLFLLRFINANVIAELFFRPIIGTVSMDDMMLEMLCTKI
**Q.** Which results are given for B2?
**A.** Luc. act., normalized to lacZ (SREBP1c promoter): 497.8; Normalized Luc. act., normalized to control (SREBP1c promoter): 1.5; mSREBP1-c promoter reporter activity (SREBP1c promoter): 1.55; Normalized Luc. act., normalized to control (hIRF7 promoter): 1.1; Luc. act., normalized to lacZ (hIRF7 promoter): 27.9; hIRF7 promoter reporter activity (hIRF7 promoter): 1.06; Luc. act., normalized to lacZ (mADRP promoter): 419.9; Normalized Luc. act., normalized to control (mADRP promoter): 0.8; mADRP promoter reporter activity (mADRP promoter): 0.84
